US20230416802A1, “SPECIFIC SUBSTRATES AND PRODUCTS OF HSD17B13 AS MARKERS OF LIVER DISEASE AND BIOMARKERS FOR LIVER DISEASE TREATMENT” (INIPHARM, INC., priority 2020, published 2023)

Target: T1, HSD17B13 enzyme (Homo sapiens, UniProt Q7Z5P4)
T1 construct: His; made in house; host or cells: E. coli
T1 sequence (Q7Z5P4 20-300): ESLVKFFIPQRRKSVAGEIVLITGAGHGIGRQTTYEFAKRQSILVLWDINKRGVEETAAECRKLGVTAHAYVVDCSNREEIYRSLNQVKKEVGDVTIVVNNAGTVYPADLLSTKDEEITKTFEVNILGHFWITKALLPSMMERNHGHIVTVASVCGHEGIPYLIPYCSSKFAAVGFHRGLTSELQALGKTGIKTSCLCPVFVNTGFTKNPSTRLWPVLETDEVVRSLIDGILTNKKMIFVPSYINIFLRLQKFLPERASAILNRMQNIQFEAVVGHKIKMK
Assay: HSD17B13 activity assay using NADH fluorescence
Assay type: biochemical
Conditions: activity relative to positive control LTB3; for Relative oxidation at 30 μM (%): substrate at 30 μM, NADH production by purified HSD17B13
Description: A fluorescence based HSD17B13 activity assay was used to monitor the fluorescence of NADH, which is generated from NAD+ during the dehydrogenation of the substrate LTB3 or other substrates. Reactions were performed in a 384-well plates (Greiner; #655076) in a 20 μl reaction volume containing the following reagents (final concentrations): 3 mM NAD^+ (Sigma; #N0623); 125 nM HSD17B13 enzyme (in-house E. coli expressed His-tagged, purified, soluble protein); 1 M potassium phosphate buffer, pH 7.4; 1% DMSO; and a range of substrate concentrations ([…]). Reactions proceeded for […] at 26.5° C. Generation of NADH was measured as the fluorescence signal (Excitation at 340 nm and Emission at 445 nm) at 3 hours minus the baseline fluorescence at t=0. Fluorescence signals in the absence of added substrate (negative control values), were subtracted from all values so that the results reflected substrate-dependent production of NADH. NADH standards were included to allow the conversion of relative fluorescence units into rates of enzyme activity. Ten concentrations of substrate were tested (in the range of 30 mM-2.5 nM), and two independent assessments were performed at each concentration. Activity was compared to the positive control, LTB3, at a concentration of […]. Results are reported as the ratio: [Activity of compound at 30 mM]/[Activity of LTB3 at […]].

Structure (SMILES) | Relative oxidation at 30 μM (%) | also measured
CCCCC[C@@H](O)/C=C/C=C\CCCCCCCCCC(=O)O [15 (R) HEDE] | 46 | 
CCCCCCCC[C@@H](O)/C=C/C=C\C=C\[C@@H](O)CCCC(=O)O [Leukotriene B3 (LTB3), 5S,12R-dihydroxy-6Z,8E,10E-eicosatrienoic acid] | 100 | 
CC/C=C\C[C@H](O)/C=C/C=C\C=C\[C@@H](O)C/C=C\C/C=C\CCC(=O)O [Protectin DX, 10(S),17(S)-dihydroxy-4Z,7Z,11E,13Z,15E,19Z-docosahexaenoic acid] | 105 | 
CCCCC/C=C\C[C@@H](O)/C=C/C=C\C/C=C\CCCC(=O)O [12(R) HETE] | 60 | 
CC/C=C\C[C@H](O)/C=C/C=C\C=C\C=C\[C@@H](O)[C@@H](O)C/C=C\CCC(=O)O [Resolvin D1, 7S,8R,17S-trihydroxy-4Z,9E,11E,13Z,15E,19Z-docosahexaenoic acid] | 135 | 
CC[C@@H](O)/C=C/C=C\C[C@@H](O)/C=C/C=C/C=C\[C@@H](O)CCCC(=O)O [Resolvin E1, 5S,12R,18R-trihydroxy-6Z,8E,10E,14Z,16E-eicosapentaenoic acid] | 45 | 
CCCCCCCCCCCC(=O)SCCNC(=O)CCNC(=O)[C@H](O)C(C)(C)COP(=O)(O)OP(=O)(O)OC[C@H]1O[C@@H](n2cnc3c(N)ncnc32)[C@H](O)[C@@H]1OP(=O)(O)O [Lauryl coenzyme A, S-[2-[3-[[(2R)-4-[[[(2R,3S,4R,5R)-5-(6-aminopurin-9-yl)-4-hydroxy-3-phosphonooxyoxolan-2-yl]methoxy-hydroxyphosphoryl]oxy-hydroxyphosphoryl]oxy-2-hydroxy-3,3-dimethylbutanoyl]amino]propanoylamino]ethyl] dodecanethioate] |  | Relative oxidation (%) at 3.3 μM (substrate at 3.3 μM): 35 (AT 3.3 μM) %
CC(C(=O)O)C(=O)SCCNC(=O)CCNC(=O)[C@H](O)C(C)(C)COP(=O)(O)OP(=O)(O)OC[C@H]1O[C@@H](n2cnc3c(N)ncnc32)[C@H](O)[C@@H]1OP(=O)(O)O (stereo partly drawn) [Methyl malonyl coenzyme A, (9R)-1-[(2R,3S,4R,5R)-5-(6-Amino-9H-purin-9-yl)-4-hydroxy-3-(phosphonooxy)oxolan-2-yl]-3,5,9-trihydroxy-8,8,20-trimethyl-3,5,10,14,19-pentaoxo-2,4,6-trioxa-18-thia-11,15-diaza-3λ5,5λ5-diphosphahenicosan-21-oic acid] |  | Relative oxidation (%) at 10 μM (substrate at 10 μM): 29 (at 10 μM) %
CC/C=C\C/C=C\C[C@H](O)\C=C/C=C/C=C/[C@H](O)C/C=C\CCC(=O)O [Maresin 1, 7R,14S-dihydroxy-4Z,8E,10E,12Z,16Z,19Z-docosahexaenoic acid] | 22 | 
